Results: US20090286831A1, “VR1 Receptor Ligands and u-Opioid Receptor Ligands for the Treatment of Pain” (priority 2006, published 2009)
Marks after values point to notes of the source that are not given here.

Tests used:
[1] = system: rats; test: Tail-flick (hot beam) test in rats; assay type: in vivo, rat; conditions: dosage 30 mg/kg i.v.
Description: Sprague Dawley rats (140-160 g body weight) were used for the following animal models. Sprague Dawley rats (140-160 g body weight) from a commercial breeder (Janvier, Genest St. Isle, France) were used. The animals were kept under standard conditions: light-dark rhythm (06:00 to 18:00 h light, 18:00 to 06:00 h dark), room temperature 19-23° C., relative air humidity 45-65%, air exchange 19 times per hour, air movement <0.2 m/s, free choice of tap water and standard feed, Macrolon Type 4 cages with 5 animals per cage. The solutions of the test substances and/or vehicles (10% […], 5% Cremophor EL, 5% glucose) were administered intravenously.
The analgesic efficacy of the test compounds was examined in the hot beam (tail flick) test in rats using the method of D'Amour and Smith (J. Pharm. Exp. Ther. 1941, 72, 74-79). The time from switching on the lamp (8V/50 W) to the sudden flicking away of the tail from the hot beam (pain latency) was measured by means of a semiautomatic apparatus (tail-flick Analgesiemeter Type 50/08/1.bc, Labtec, Dr. Hess, Germany). The lamp intensity was adjusted before conducting the experiments so that the time from switching on the lamp to the sudden flicking away of the tail (pain latency) amounted to 3-5 seconds in untreated animals. The lamp was automatically switched off after 12 seconds to avoid tissue damage to the rat's tail. The pain latency was measured 10, 20, 40 and 60 min after intravenous administration. The analgesic effect was determined as increase in pain latency (% MPE) according to the following formula: […]
In this case, T0 is the latency time before and T1 the latency time after substance application, T2 is the maximum exposure time (12 sec). Results of the analgesia study in the tail-flick test in rats:
The following experiments of Example 2 relate to binding studies and the analgesic efficacy of the compounds with dual mode of action according to the invention. The experiments comprise the determination of the (f)Ki value at the TPRV1 receptor, the Ki value at the μ-opioid receptor and the hypothermia assay in mice. The tail-flick test for the compounds [1], [4], [7] and [10] according to the invention was conducted in a similar manner to the above-described method (cf. Example 1, experiment 1).

[2] = system: male NMRI mice; test: Hypothermia assay in mice (capsaicin-induced hypothermia); assay type: in vivo, mouse; conditions: dosage 3 mg/kg p.o., capsaicin 3 mg/kg i.p.
Description: The hypothermia assay was conducted on male NMRI mice (weight 25-35 gram). The animals were kept in standardised conditions: light/dark rhythm (6:00 to 18:00 h light phase, 18:00 to 6:00 h dark phase), room temperature 19-22° C., relative air humidity 35-70%, air exchange 15 times per hour, air movement <0.2 m/sec. The animals received standard feed (ssniff R/M-Haltung, ssniff Spezialdiäten GmbH, Soest, Germany) and tap water. Water and feed were withdrawn during the test. All the animals were used only once in the test. […] The acute application of capsaicin (VR-1 agonist) causes a drop in core body temperature in rats and mice via a stimulation of heat sensors. Only specific active VR-1 receptor antagonists can antagonise capsaicin-induced hypothermia. In contrast, hypothermia induced by morphine is not antagonised by VR-1 antagonists. This model is therefore suitable for identifying substances with VR-1 antagonist properties via the effect on the body temperature.
A digital thermometer (Thermalert TH-5, physitemp, Clifton N.J., USA) is used for measuring the core body temperature. The measurement sensor is inserted into the rectum of the animals in this case. As an individual base value the body temperature is measured twice in each animal at an interval of approximately half an hour. A group of animals (n=6 to 10) then received an intraperitoneal (i.p.) application of capsaicin of 3 mg/kg and vehicle (control group). Another group of animals received the substance to be tested (i.v. or p.o.) and additionally capsaicin (3 mg/kg) i.p. The test substance was applied i.v. 10 min or p.o. 15 minutes before the application of capsaicin. Then, the body temperature was measured 7.5, 15 and 30 min after capsaicin application (i.v.+i.p.) or 15, 30, 60, 90 and 120 min after capsaicin application (p.o.+i.p.). In addition, one animal group was treated only with test substance and one group was treated only with vehicle. The antagonist effect is calculated as a percentage reduction in the capsaicin-induced hypothermia.

[3] = target: T1, human recombinant μ-opioid receptor (Homo sapiens, UniProt P35372); test: Ki value at the μ-opioid receptor (Experiment 4); assay type: binding
T1 construct: expressed in transfected cells; host or cells: CHO-K1 cells (membrane preparation)

[4] = target: T2, vanilloid receptor 1 (VR1/TRPV1) (Homo sapiens, UniProt Q8NER1); test: FLIPR capsaicin assay; assay type: cell-based, human or rat; conditions: functional Ki, capsaicin 100 nM, VR1-transfected CHO K1 cells, modified Cheng-Prusoff; read-out: f(Ki) (VR1)
T2 construct: expressed in transfected cells; host or cells: CHO K1 cells (ECACC), stably transfected
Text: (§1) The agonist or antagonist effect of substances can be determined at the vanilloid receptor 1 (VR1/TRPV1) of the human and rat species with the assay described below. Accordingly, the Ca^2+ influx through the channel is quantified by means of a Ca^2+-sensitive dye (Fluo-4, Molecular Probes Europe BV, Leiden, The Netherlands) in the fluorescent imaging plate reader (FLIPR, Molecular Devices, Sunnyvale, USA).
(§2) Chinese hamster ovary cells (CHO K1 cells, ECACC, England) are stably transfected with human or rat VR1 cDNA. For functional studies these cells are plated onto poly-D-lysine-coated black 96-hole plates with a clear base (BD Biosciences, Heidelberg, Germany) in a density of 25 000 cells/cavity. The cells are incubated overnight at 37° C. with 5% CO2 in culture medium (nutrient mixture Ham's F12, Gibco Invitrogen GmbH, Karlsruhe, Germany) with 10% vol. FBS (foetal bovine serum, Gibco Invitrogen GmbH, Karlsruhe, Germany) and 18 μg/ml of L-proline (Gibco Invitrogen GmbH, Karlsruhe, Germany). On the following day, the cells are laden with 2 μM Fluo-4 and 0.01% vol. Pluronic F127 (Molecular Probes Europe BV, Leiden, The Netherlands) in HBSS buffer (Hank's buffered saline solution, Gibco Invitrogen GmbH, Karlsruhe, Germany) for 30 min at 37° C. The plates are then washed 3 times in HBSS buffer and after further incubation for 15 minutes at room temperature are placed in the FLIPR for the Ca^2+ measurement. In this case, the Ca^2+-dependent fluorescence is measured before and after the addition of substances (λex=488 nm, λem=540 nm). Quantification occurs as a result of the measurement of the highest fluorescence intensity (FC, fluorescence counts) over time.
The FLIPR protocol consists of 2 substance additions. Test substances (10 μM) are firstly pipetted onto the cells and the Ca^2+ influx is compared to the control (capsaicin 10 μM). This gives the specification in % activation in relation to the Ca^2+ signal after adding 10 μM of capsaicin. After 5 minutes incubation 100 nM of capsaicin are applied and the influx of Ca^2+ likewise determined. Desensitising agonists and antagonists lead to a suppression of the Ca^2+ influx. Inhibition values [%] are calculated in comparison to the maximum achievable inhibition with a saturating concentration of […] or another reference antagonist. The test substance is added in different concentrations to determine the IC50 and functional Ki value ((f)Ki). Triple determinations (n=3) are conducted and these are repeated in at least one further independent experiment (N>=2). A capsaicin dose action curve is generated to incorporate the thus determined EC50 values into the associated (f)Ki determination. EC50/IC50 values are calculated using ‘Prism4’ software from GraphPad Software™ or with XLfit4™ (ID Business Solutions Ltd.). (f)Ki values are calculated in accordance with the modified Cheng-Prusoff equation (Cheng, Prusoff; Biochem. Pharmacol. 22, 3099-3108, 1973). Testing for non-specific inhibition of the fluorescence as a result of the substances is conducted by activating wild type CHO K1 cells incubated with the same test substances with ATP (10 μM final concentration).

[5] = target: T3, human VR1 (Homo sapiens, UniProt Q8NER1); test: FLIPR pH assay; assay type: cell-based
T3 construct: expressed in transfected cells; host or cells: CHO K1 cells (ECACC), stably transfected
Text: as §1, §2
In the pH assay, HBSS that now contains 60 mM MES instead of capsaicin is applied to human VR1-transfected CHO K1 cells (adjusted pH value of the addition solution is 4.95). Percentage inhibition and IC50 values are raised and evaluated as already described for the capsaicin test.

T1 sequence (P35372 whole entry): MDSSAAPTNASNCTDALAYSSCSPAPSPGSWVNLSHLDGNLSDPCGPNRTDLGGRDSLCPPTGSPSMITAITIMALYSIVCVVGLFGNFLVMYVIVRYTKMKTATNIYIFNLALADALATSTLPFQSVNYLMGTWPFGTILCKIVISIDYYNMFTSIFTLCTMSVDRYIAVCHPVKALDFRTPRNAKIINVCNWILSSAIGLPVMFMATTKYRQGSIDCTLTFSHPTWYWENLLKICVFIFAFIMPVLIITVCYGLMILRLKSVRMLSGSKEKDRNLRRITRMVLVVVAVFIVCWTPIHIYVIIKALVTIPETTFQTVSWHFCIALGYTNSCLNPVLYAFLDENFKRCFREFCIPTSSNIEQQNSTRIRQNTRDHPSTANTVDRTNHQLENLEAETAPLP
T3 sequence (Q8NER1 whole entry): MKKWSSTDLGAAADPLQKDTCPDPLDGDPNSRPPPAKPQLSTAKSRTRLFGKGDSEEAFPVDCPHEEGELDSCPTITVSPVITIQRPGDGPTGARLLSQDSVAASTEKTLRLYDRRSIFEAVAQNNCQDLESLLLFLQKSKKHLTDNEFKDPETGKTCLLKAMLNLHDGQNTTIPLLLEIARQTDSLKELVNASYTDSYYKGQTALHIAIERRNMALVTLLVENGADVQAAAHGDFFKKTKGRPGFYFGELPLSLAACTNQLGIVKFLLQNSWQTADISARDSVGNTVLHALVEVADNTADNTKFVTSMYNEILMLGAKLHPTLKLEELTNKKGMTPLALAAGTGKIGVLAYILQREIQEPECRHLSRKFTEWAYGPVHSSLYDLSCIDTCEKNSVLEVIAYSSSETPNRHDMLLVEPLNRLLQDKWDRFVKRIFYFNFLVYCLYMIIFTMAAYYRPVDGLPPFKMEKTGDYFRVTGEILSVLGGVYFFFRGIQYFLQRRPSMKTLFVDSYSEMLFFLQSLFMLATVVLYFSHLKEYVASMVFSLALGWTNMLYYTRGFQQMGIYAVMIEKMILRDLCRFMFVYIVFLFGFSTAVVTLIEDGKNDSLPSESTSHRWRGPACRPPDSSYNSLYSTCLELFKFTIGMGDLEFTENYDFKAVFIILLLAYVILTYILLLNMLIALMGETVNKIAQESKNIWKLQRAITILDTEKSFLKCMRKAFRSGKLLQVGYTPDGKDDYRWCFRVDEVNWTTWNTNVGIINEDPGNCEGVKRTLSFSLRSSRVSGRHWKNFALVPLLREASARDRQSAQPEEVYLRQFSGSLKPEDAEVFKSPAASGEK
T2 sequence (Q8NER1 whole entry): as above

SMILES | Tail-Flick [% MPE] [1] | Hypothermia Assay [% Inhibition] [2] [%^1)] | Ki [3] [µM] | Ki [4] [µM] | IC50 [5] [µM]
CC(C(=O)NCc1ccc(C(F)(F)F)cc1N1CCC(c2cccs2)(N(C)C)CC1)c1ccc(NS(C)(=O)=O)c(F)c1 (centres unmarked) [[4], N-(2-(4-(dimethylamino)-4-(thiophen-2-yl)piperidin-1-yl)-4-(trifluoromethyl)benzyl)-2-(3-fluoro-4-(methylsulfonamido)phenyl)propanamide] | n.e.^3), 37%^4) % MPE | 4 | 0.061 | 0.005 | 0.776
CC(C(=O)NCc1ccc(C(F)(F)F)cc1N1CCC(Cc2ccccc2)(N(C)C)CC1)c1ccc(NS(C)(=O)=O)c(F)c1 (centres unmarked) [[7], N-(2-(4-benzyl-4-(dimethylamino)piperidin-1-yl)-4-(trifluoromethyl)benzyl)-2-(3-fluoro-4-(methylsulfonamido)phenyl)propanamide] | n.e.^3), 100%^4) % MPE | 59 | 0.024 | 0.0028 | 0.434
CC(C(=O)NCc1ccc(C(F)(F)F)cc1N1CCC(Cc2cccc(F)c2)(N(C)C)CC1)c1ccc(NS(C)(=O)=O)c(F)c1 (centres unmarked) [[10], N-(2-(4-(dimethylamino)-4-(3-fluorobenzyl)piperidin-1-yl)-4-(trifluoromethyl)benzyl)-2-(3-fluoro-4-(methylsulfonamido)phenyl)propanamide] | – | 29 | 0.079 | 0.0014 | 0.137
